Key:
[1] = target: Full length human recombinant HDAC11 (Homo sapiens (Human), UniProt Q96DB2); test: Enzymatic HDAC11 assay, electrophoretic mobility shift; format: biochemical; conditions: substrate FAM-RHKK(tri-fluor-Ac)-NH2, read-out: HDAC11 IC50 Range
Description: The enzymatic HDAC11 assay was performed using electrophoretic mobility shift assay. Full length human recombinant HDAC11 protein was expressed in baculoviral system and purified by affinity chromatography. The enzymatic reactions were assembled in 384 well plates in a total volume of 25 μL in a reaction buffer composing: 100 mM HEPES, pH 7.5, 25 mM KCl, 0.1% bovine serum albumin, 0.01% Triton X-100, 1% DMSO (from compounds) 2 μM of the fluorescently labeled peptide substrate and enzyme. The enzyme was added at a final concentration of 10 nM. The peptide substrate FAM-RHKK(tri-fluor-Ac)-NH2 was used. The compounds were tested at 12 concentrations spaced by 3× dilution intervals. Negative control samples (0%-inhibition in the absence of inhibitor) and positive control samples (100%-inhibition) were assembled in replicates of four in each assay plate. The reactions were incubated at 25° C. and quenched by the addition of 45 μL of termination buffer (100 mM HEPES, pH 7.5, 0.01% Triton X-100, 0.05% SDS).
The terminated assay plates were analyzed on LabChip® 3000 microfluidic electrophoresis instrument (Perkin Elmer/Caliper Life Sciences). The fluorescence intensity of the electrophoretically separated de-acetylated product and substrate peptide was measured. Activity in each sample was determined as the product to sum ratio (PSR):P/(S+P), where P is the peak height of the product peptide and S is the peak height of the substrate peptide. Percent inhibition (Pinh) is determined using the following equation: Pinh=(PSR0%−PSRinh)/(PSR0%−PSR100%)*100,
where PSRinh is the product sum ratio in the presence of inhibitor, PSR0% is the average product sum ration in the absence of inhibitor and PSR100% is the average product sum ratio in 100%-inhibition control samples. The IC50 values of inhibitors were determined by fitting the percent inhibition curves with 4 parameter dose-response model using XLfit 4 software.

[2] = target: Recombinant N-terminal GST tag full-length human HDAC11 (Homo sapiens (Human), UniProt Q96DB2); test: Probe binding HDAC11 assay, time resolved fluorescence (TRF); conditions: read-out: HDAC11 IC50 Range
Chain of Recombinant N-terminal GST tag full-length human HDAC11 (Q96DB2 whole entry): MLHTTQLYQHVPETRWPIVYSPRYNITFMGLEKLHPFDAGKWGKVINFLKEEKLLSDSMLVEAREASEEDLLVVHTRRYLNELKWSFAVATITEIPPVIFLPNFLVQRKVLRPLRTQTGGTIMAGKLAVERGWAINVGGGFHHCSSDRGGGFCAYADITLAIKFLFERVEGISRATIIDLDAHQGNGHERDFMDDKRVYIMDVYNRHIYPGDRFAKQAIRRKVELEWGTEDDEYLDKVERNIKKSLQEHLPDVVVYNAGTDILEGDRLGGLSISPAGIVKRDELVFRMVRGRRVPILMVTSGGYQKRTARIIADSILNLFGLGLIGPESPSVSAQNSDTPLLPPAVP

Chain of Full length human recombinant HDAC11 (Q96DB2 whole entry): as above

Row | Structure (SMILES) | IC50 [1] [nM] | IC50 [2] [nM]
1 | O=C(NO)c1cccc2c1CC1(CCN(CC3CC3)C1=O)C2 (stereo not drawn) [II-55, 1′-(cyclopropylmethyl)-N-hydroxy-2′-oxo-1,3-dihydrospiro[indene-2,3′-pyrrolidine]-4-carboxamide] | > 1000 | –
2 | O=C(NO)c1cccc2c1CC1(CCN(Cc3ccccc3)CC1)C2=O [II-65, 1′-benzyl-N-hydroxy-1-oxo-1,3-dihydrospiro[indene-2,4′-piperidine]-4-carboxamide] | > 1000 | –
3 | O=C(NO)c1cccc2c1OC1(CC2)CCN(c2ccc(C(F)(F)F)cn2)CC1 [II-82, N-hydroxy-1′-(5-(trifluoromethyl)pyridin-2-yl)spiro[chromane-2,4′-piperidine]-8-carboxamide] | > 1000 | –
4 | O=C(NO)c1cccc2c1OC1(CC2)CCN(C(=O)Cc2ccccc2)CC1 [II-79, N-hydroxy-1′-(2-phenylacetyl)spiro[chromane-2,4′-piperidine]-8-carboxamide] | > 1000 | –
5 | O=C(NO)c1cccc2c1CC1(CCN(Cc3cccc(F)c3)C1=O)C2 (stereo not drawn) [II-26, 1′-(3-fluorobenzyl)-N-hydroxy-2′-oxo-1,3-dihydrospiro[indene-2,3′-pyrrolidine]-4-carboxamide] | > 1000 | –
6 | COc1cc(CN2CCC3(Cc4cccc(C(=O)NO)c4C3)C2=O)cc(OC)c1 (stereo not drawn) [II-40, 1′-(3,5-dimethoxybenzyl)-N-hydroxy-2′-oxo-1,3-dihydrospiro[indene-2,3′-pyrrolidine]-4-carboxamide] | > 1000 | –
7 | O=C(NO)c1cccc2c1CC1(CCN(C3CC3)C1)C2 (stereo not drawn) [II-57, 1′-cyclopropyl-N-hydroxy-1,3-dihydrospiro[indene-2,3′-pyrrolidine]-4-carboxamide] | > 1000 | –
8 | O=C(NO)c1cccc2c1CC1(CCN(Cc3cc(-c4ccccc4)no3)C1=O)C2 (stereo not drawn) [II-46, N-hydroxy-2′-oxo-1′-((3-phenylisoxazol-5-yl)methyl)-1,3-dihydrospiro[indene-2,3′-pyrrolidine]-4-carboxamide] | > 1000 | –
9 | O=C(NO)c1cccc2c1CC1(CCN(Cc3cccc(OC(F)(F)F)c3)C1=O)C2 (stereo not drawn) [II-42, N-hydroxy-2′-oxo-1′-(3-(trifluoromethoxy)benzyl)-1,3-dihydrospiro[indene-2,3′-pyrrolidine]-4-carboxamide] | < 500 | –
10 | COc1ccccc1CN1CCC2(Cc3cccc(C(=O)NO)c3C2)C1=O (stereo not drawn) [II-36, N-hydroxy-1′-(2-methoxybenzyl)-2′-oxo-1,3-dihydrospiro[indene-2,3′-pyrrolidine]-4-carboxamide] | > 1000 | –
11 | O=C(NO)c1cccc2c1CCC1(CCN(c3ccccc3C(F)(F)F)C1=O)C2 (stereo not drawn) [II-90, N-hydroxy-2′-oxo-1′-(2-(trifluoromethyl)phenyl)-3,4-dihydro-1H-spiro[naphthalene-2,3′-pyrrolidine]-5-carboxamide] | > 1000 | –
12 | CN(C)C(=O)N1CCC2(CCc3cccc(C(=O)NO)c3O2)CC1 [II-74, N8-hydroxy-N1′,N1′-dimethylspiro[chromane-2,4′-piperidine]-1′,8-dicarboxamide] | > 1000 | –
13 | O=C(NO)c1cccc2c1CCC1(CCN(Cc3ccc(C(F)(F)F)c(F)c3)C1=O)C2 (stereo not drawn) [II-86, 1′-(3-fluoro-4-(trifluoromethyl)benzyl)-N-hydroxy-2′-oxo-3,4-dihydro-1H-spiro[naphthalene-2,3′-pyrrolidine]-5-carboxamide] | < 500 | –
14 | O=C(NO)c1cccc2c1CC1(CCN(C3CC3)CC1)C2 [II-63, 1′-cyclopropyl-N-hydroxy-1,3-dihydrospiro[indene-2,4′-piperidine]-4-carboxamide] | > 1000 | –
15 | O=C(NO)c1cccc2c1CC1(CCN(C(=O)c3ccc(C(F)(F)F)cc3)C1)C2 (stereo not drawn) [II-58, N-hydroxy-1′-(4-(trifluoromethyl)benzoyl)-1,3-dihydrospiro[indene-2,3′-pyrrolidine]-4-carboxamide] | > 1000 | –
16 | O=C(NO)c1cccc2c1CC1(CCN(Cc3cn(-c4ccccc4)nn3)C1=O)C2 (stereo not drawn) [II-53] | > 1000 | –
17 | O=C(NO)c1cccc2c1CC1(CCN(Cc3cccnc3)C1=O)C2 (stereo not drawn) [II-24, N-hydroxy-2′-oxo-1 ‘-(pyridin-3-ylmethyl)-1,3-dihydrospiro[indene-2,3’-pyrrolidine]-4-carboxamide] | > 1000 | –
18 | O=C(NO)c1cccc2c1CC1(CCN(Cc3cc(F)cc(F)c3)C1=O)C2 (stereo not drawn) [II-28, 1′-(3,5-difluorobenzyl)-N-hydroxy-2′-oxo-1,3-dihydrospiro[indene-2,3′-pyrrolidine]-4-carboxamide] | > 1000 | –

Row | Structure (SMILES) | IC50 [1] [nM] | IC50 [2] [nM]
19 | O=C(NO)c1cccc2c1CC1(CCN(c3ccc(C(F)(F)F)cc3)C1=O)C2 (stereo not drawn) [II-11, N-hydroxy-2′-oxo-1′-(4-(trifluoromethyl)phenyl)-1,3-dihydrospiro[indene-2,3′-pyrrolidine]-4-carboxamide] | > 1000 | –
20 | O=C(NO)c1cccc2c1CC1(CCN(Cc3cccc(Br)c3)C1=O)C2 (stereo not drawn) [II-33, 1′-(3-bromobenzyl)-N-hydroxy-2′-oxo-1,3-dihydrospiro[indene-2,3′-pyrrolidine]-4-carboxamide] | < 500 | –
21 | CC1(C(=O)N2CCC3(CCc4cccc(C(=O)NO)c4O3)CC2)CCOCC1 [II-77, N-hydroxy-1′-(4-methyltetrahydro-2H-pyran-4-carbonyl)spiro[chromane-2,4′-piperidine]-8-carboxamide] | > 1000 | –
22 | O=C(NO)c1cccc2c1CC1(CCN(Cc3ccc(Cl)cc3)C1=O)C2 (stereo not drawn) [II-1, 1′-(4-chlorobenzyl)-N-hydroxy-2′-oxo-1,3-dihydrospiro[indene-2,3′-pyrrolidine]-4-carboxamide] | < 500 | –
23 | O=C(NO)c1cccc2c1CC1(CCN(Cc3c(Cl)cccc3Cl)C1=O)C2 (stereo not drawn) [II-21, 1′-(2,6-dichlorobenzyl)-N-hydroxy-2′-oxo-1,3-dihydrospiro[indene-2,3′-pyrrolidine]-4-carboxamide] | 500 to 1000 | –
24 | CN1CCC2(Cc3cccc(C(=O)NO)c3C2)C1=O (stereo not drawn) [II-2, N-hydroxy-1′-methyl-2′-oxo-1,3-dihydrospiro[indene-2,3′-pyrrolidine]-4-carboxamide] | > 1000 | –
25 | O=C(NO)c1cccc2c1CC1(CCN(Cc3ccccc3)C1=O)C2 (stereo not drawn) [II-14, 1′-benzyl-N-hydroxy-2′-oxo-1,3-dihydrospiro[indene-2,3′-pyrrolidine]-4-carboxamide] | > 1000 | –
26 | O=C(NO)c1cncc(Nc2nc3cc(Cl)c(Cl)cc3o2)c1 [Example 4-5, 5-((5,6-dichlorobenzo[d]oxazol-2-yl)amino)-N-hydroxynicotinamide] | – | < 500
27 | CS(=O)(=O)c1cc2nc(Nc3cccc(C(=O)NO)c3)[nH]c2cc1C#N [Example 6-1, 3-(5-cyano-6-(methylsulfonyl)-1H-benzo[d]imidazol-2-ylamino)-N-hydroxybenzamide] | – | 500 to 1000
28 | CN(c1cccc(C(=O)NO)c1)c1nc2cc(C(F)(F)F)c(-c3ccccc3)cc2n1C [Example 34-3, N-hydroxy-3-(methyl(1-methyl-6-phenyl-5-(trifluoromethyl)-1H-benzo[d]imidazol-2-yl)amino)benzamide] | – | 500 to 1000
29 | O=C(NO)c1cccc(Nc2nc3cc(C(F)(F)F)c(-c4ccccc4)cc3o2)c1 [Example 3-1, N-hydroxy-3-(6-phenyl-5-(trifluoromethyl)benzo[d]oxazol-2-ylamino)benzamide] | – | < 500
30 | O=C(NO)c1cccc(Nc2nc3cc(Cl)c(C(F)(F)F)cc3[nH]2)c1 [Example 33-6, 3-((5-chloro-6-(trifluoromethyl)-1H-benzo[d]imidazol-2-yl)amino)-N-hydroxybenzamide] | – | < 500
31 | O=C(NO)c1cccc(Nc2nc3cc(C(F)(F)F)c(-c4cccc(C(=O)N5CCOCC5)c4)cc3[nH]2)c1 [Example 36-14, N-hydroxy-3-((6-(3-(morpholine-4-carbonyl)phenyl)-5-(trifluoromethyl)-1H-benzo[d]imidazol-2-yl)amino)benzamide] | – | < 500
32 | Cc1cc2[nH]c(Nc3cccc(C(=O)NO)c3)nc2cc1F [Example 33-10, 3-((5-fluoro-6-methyl-1H-benzo[d]imidazol-2-yl)amino)-N-hydroxybenzamide] | – | < 500
33 | N#Cc1cc2oc(Nc3cccc(C(=O)NO)c3)nc2cc1C(F)(F)F [Example 2-1, 3-(6-cyano-5-(trifluoromethyl)benzo[d]oxazol-2-ylamino)-N-hydroxybenzamide] | – | < 500
34 | O=C(NO)c1cccc(Nc2nc3cc(F)c(Br)cc3[nH]2)c1 [Example 33-16, 3-((6-bromo-5-fluoro-1H-benzo[d]imidazol-2-yl)amino)-N-hydroxybenzamide] | – | < 500
35 | CC(C)n1c(Nc2cccc(C(=O)NO)c2)nc2cc(C(F)(F)F)c(C#N)cc21 [Example 14-1, 3-(6-cyano-1-isopropyl-5-(trifluoromethyl)-1H-benzo[d]imidazol-2-ylamino)-N-hydroxybenzamide] | – | < 500
36 | COc1cc2nc(Nc3cccc(C(=O)NO)c3)[nH]c2cc1OC [Example 33-13, 3-((5,6-dimethoxy-1H-benzo[d]imidazol-2-yl)amino)-N-hydroxybenzamide] | – | > 1000

Reference: US10508088B2, “Methods using HDAC11 inhibitors” (FORMA Therapeutics, Inc., priority 2016, dated 2019)
